Test results taken from article PMC6270751, “N-Substituted 5-Amino-6-methylpyrazine-2,3-dicarbonitriles: Microwave-Assisted Synthesis and Biological Properties” (Molecules, 2014).
Values after ≈ are worked out from the molar mass of the structure shown. Values joined by “and” are separate entries in the source; they are usually repeats but may differ in a detail not shown here. Identical values can stand only once. Like-named read-outs stand apart in the source and are kept apart here.

Experiments:
[1] = test system: photosynthetic electron transport (PET) in spinach chloroplasts; test: Inhibition of photosynthetic electron transport (PET) in spinach chloroplasts, DCPIP photoreduction; type: biochemical, Spinacia oleracea L.; conditions: for IC50 / IC50 PET inhibition in spinach chloroplasts: chlorophyll 30 mg/L, phosphate buffer pH 7.2
Experimental: Chloroplasts were prepared from spinach (Spinacia oleracea L.) according to Masarovicova and Kralova. The inhibition of photosynthetic electron transport (PET) in spinach chloroplasts was determined spectrophotometrically (Genesys 6, Thermo Scientific, Madison, WI, USA) using an artificial electron acceptor 2,6-dichlorophenol-indophenol (DCPIP) according to Kralova et al. and the rate of photosynthetic electron transport (PET) was monitored as a photo-reduction of DCPIP. The measurements were carried out in a phosphate buffer (0.02 mol/L, pH 7.2) containing sucrose (0.4 mol/L), MgCl2 (0.005 mol/L) and NaCl (0.015 mol/L). The chlorophyll content was 30 mg/L in these experiments and the samples were irradiated (~100 W/m^2) from a 10 cm distance with halogen lamp (250 W) using a 4 cm water filter to prevent warming of the samples (suspension temperature […]). The studied compounds were dissolved in DMSO due to their limited water solubility. […] The inhibitory efficiency of the studied compounds was expressed as the IC50 values, i.e., molar concentration of the compounds causing 50% decrease in the oxygen evolution relative to the untreated control.

[2] = Lipophilicity log k by RP-HPLC; conditions: for log k: RP-HPLC capacity factor, C18, MeOH 70%/H2O 30%, 30 °C; for π: π = log k(substituted) – log k(unsubstituted)
Excerpt: Experimental lipophilicity parameter log k was ascertained using an Agilent Technologies 1200 SL HPLC system with a SL G1315C Diode-Array Detector, ZORBAX XDB-C18 5 μm, 4 × 4 mm, Part No. 7995118-504 chromatographic pre-column and ZORBAX Eclipse XDB-C18 5 μm, 4.6 × 250 mm, Part No. 7995118-585 column (Agilent Technologies Inc., Colorado Springs, CO, USA). The separation process was controlled by Agilent ChemStation, version B.04.02 extended by spectral module (Agilent Technologies Inc.). A solution of MeOH (HPLC grade, 70%) and H2O (HPLC-Milli-Q Grade, 30%) was used as mobile phase. The total flow of the column was 1.0 mL/min, injection 20 μL, column temperature 30 °C. Detection wavelength λ= 210 nm and monitor wavelength λ= 270 nm were chosen for this measurement. The KI methanol solution was used for the dead time (TD) determination. Retention times (TR) of synthesized compounds were measured in minutes. The capacity factors k were calculated using Microsoft Excel according to formula k = (TR − TD)/TD, where TR is the retention time of the solute and TD denotes the dead time obtained via an unretained analyte. Log k, calculated from the capacity factor k, is used as the lipophilicity index converted to log P scale.

[3] = test system: M. tuberculosis H37Rv CNCTC My 331/88; test: Antimycobacterial in vitro screening, microdilution broth panel method, Alamar Blue; type: cell-based, Mycobacterium tuberculosis; conditions: 37 °C; for MIC: Mycobacterium tuberculosis, H37RV, 336 h, pH 6, Sula's medium pH 6.0, 14 days; for MIC M.tuberculosis H37Rv: Sula's medium pH 6.0, 14 days
[4] = test system: Trichophyton mentagrophytes 445; test: Antifungal in vitro screening, microdilution broth method; type: cell-based; conditions: for MIC: Trichophyton mentagrophytes, 445, RPMI 1640, pH 7.0, 35 °C, read-out: MIC against Trichophyton mentagrophytes; for activity against Trichophyton mentagrophytes: result in words
Experimental: Antifungal evaluation was also accomplished with microdilution broth method. On the contrary, there was used RPMI 1640 broth with glutamine as medium and conditions were humid and dark atmosphere, pH 7.0 (buffered with 3-morpholinopropane-1-sulfonic acid) and 35 °C. Eight fungal strains were used (Candida albicans ATCC 44859, Candida tropicalis 156, Candida krusei E28, Candida glabrata 20/I, Trichosporon asahii 1188, Aspergillus fumigatus 231, Absidia corymbifera 272, Trichophyton mentagrophytes 445) together with 4 antimycotic standards amphotericin B, voriconazole, nystatin and fluconazole.

[5] = test system: M. avium CNCTC My 152/73; test: Antimycobacterial in vitro screening, non-tuberculosis strain M. avium; type: cell-based, Mycobacterium avium; conditions: result in words
[6] = test system: M. kansasii CNCTC My 235/80; test: Antimycobacterial in vitro screening, non-tuberculosis strain M. kansasii; type: cell-based, Mycobacterium kansasii; conditions: result in words
[7] = test system: photosynthetic electron transport (PET) in spinach chloroplasts; parameters: method as in earlier work; conditions: DCMU standard; read-out: IC50 PET inhibition in spinach chloroplasts (standard); cited from earlier work

SMILES	IC50 [1] [µM]	log k [2]	π [2]	MIC [3] [µg/mL]	MIC M.tuberculosis H37Rv [3] [µg/mL]	PET inhibitory activity relative to DCMU (times lower) ([1]; ratio of IC50 to standard DCMU) [times]	IC50 PET inhibition in spinach chloroplasts [1]	MIC [4] [µM]	activity against Trichophyton mentagrophytes [4]	activity against M. avium 152 [5]	activity against M. kansasii [6]	IC50 [7]
Cc1ccccc1CNc1nc(C#N)c(C#N)nc1C [Compound 1, 5-Methyl-6-[(2-methylbenzyl)amino]pyrazine-2,3-dicarbonitrile]	114	0.4668	0.1674	> 100	>100	–	–	–	–	–	–	–
Cc1nc(C#N)c(C#N)nc1NCc1cccc(C(F)(F)F)c1 [Compound 2, 5-Methyl-6-{[3-(trifluoromethyl)benzyl]amino}pyrazine-2,3-dicarbonitrile]	37.7	0.5369	0.2375	12.5 (≈ 39.4 µM)	–	–	–	–	–	–	–	–
Cc1nc(C#N)c(C#N)nc1NCc1ccc(Cl)c(Cl)c1 [Compound 3, 5-[(3,4-Dichlorobenzyl)amino]-6-methylpyrazine-2,3-dicarbonitrile]	16.4	0.7538	0.4544	6.25 (≈ 19.6 µM)	–	8.6	–	–	–	–	–	–
Cc1ccc(CNc2nc(C#N)c(C#N)nc2C)cc1 [Compound 4, 5-Methyl-6-[(4-methylbenzyl)amino]pyrazine-2,3-dicarbonitrile]	105	0.5157	0.2163	25 (≈ 94.9 µM)	–	–	–	–	–	–	–	–
COc1ccc(CNc2nc(C#N)c(C#N)nc2C)cc1 [Compound 5, 5-[(4-Methoxybenzyl)amino]-6-methylpyrazine-2,3-dicarbonitrile]	465	0.2820	−0.0174	> 100	>100	–	–	–	–	–	–	–
Cc1nc(C#N)c(C#N)nc1NCc1ccccc1 [Compound 6, 5-(Benzylamino)-6-methylpyrazine-2,3-dicarbonitrile]	–	0.2994	0	25 (≈ 100 µM)	–	–	inactive	–	–	–	–	–
Cc1nc(C#N)c(C#N)nc1NCc1ccc(N)cc1 [Compound 7, 5-[(4-Aminobenzyl)amino]-6-methylpyrazine-2,3-dicarbonitrile]	–	−0.2014	−0.5008	25 (≈ 94.6 µM)	–	–	inactive	500 (≈ 132 µg/mL)	insignificant activity	–	–	–
Cc1nc(C#N)c(C#N)nc1NCc1cccc(Cl)c1 [Compound 8, 5-[(3-Chlorobenzyl)amino]-6-methylpyrazine-2,3-dicarbonitrile]	57.4	0.5172	0.2178	12.5 (≈ 44.1 µM)	–	–	–	–	–	–	–	–
Cc1nc(C#N)c(C#N)nc1NCc1ccccc1Cl [Compound 9, 5-[(2-Chlorobenzyl)amino]-6-methylpyrazine-2,3-dicarbonitrile]	79	0.4663	0.1669	6.25 (≈ 22 µM)	–	–	–	–	–	–	–	–
Cc1nc(C#N)c(C#N)nc1NCc1ccccc1F [Compound 10, 5-[(2-Fluorobenzyl)amino]-6-methylpyrazine-2,3-dicarbonitrile]	196	0.3042	0.0048	12.5 (≈ 46.8 µM)	–	–	–	500 (≈ 134 µg/mL)	insignificant activity	–	–	–
Cc1nc(C#N)c(C#N)nc1NCc1ccc(C(F)(F)F)cc1 [Compound 11, 5-Methyl-6-{[4-(trifluoromethyl)benzyl]amino}pyrazine-2,3-dicarbonitrile]	39.6	0.5626	0.2632	6.25 (≈ 19.7 µM)	–	–	–	–	–	active	active	–
Cc1nc(C#N)c(C#N)nc1NCc1ccccc1C(F)(F)F [Compound 12, 5-Methyl-6-{[2-(trifluoromethyl)benzyl]amino}pyrazine-2,3-dicarbonitrile]	71.6	0.4865	0.1871	12.5 (≈ 39.4 µM)	–	–	–	125 (≈ 39.7 µg/mL)	–	active	active	–
COc1ccc(CNc2nc(C#N)c(C#N)nc2C)c(OC)c1 [Compound 13, 5-[(2,4-Dimethoxybenzyl)amino]-6-methylpyrazine-2,3-dicarbonitrile]	–	0.3699	0.0705	25 (≈ 80.8 µM)	–	–	inactive	–	–	–	–	–
Cc1nc(C#N)c(C#N)nc1NCc1cccc([N+](=O)[O-])c1 [Compound 14, 5-Methyl-6-[(3-nitrobenzyl)amino]pyrazine-2,3-dicarbonitrile]	487	0.1808	−0.1186	12.5 (≈ 42.5 µM)	–	–	–	–	–	–	–	–
Cc1nc(C#N)c(C#N)nc1NCc1ccc(Cl)cc1 [Compound 15, 5-[(4-Chlorobenzyl)amino]-6-methylpyrazine-2,3-dicarbonitrile]	86.5	0.5384	0.2390	12.5 (≈ 44.1 µM)	–	–	–	–	insignificant activity	–	–	–
CN(C)C(=O)Nc1ccc(Cl)c(Cl)c1 [DCMU, 3-(3,4-dichlorophenyl)-1,1-dimethylurea]	–	–	–	–	–	–	–	–	–	–	–	~1.9 µM and 1.9 µM
NNC(=O)c1ccncc1 [INH, isoniazid, reference compound]	–	–	–	1.56 (≈ 11.4 µM)	–	–	–	–	–	–	–	–
NC(=O)c1cnccn1 [PZA, pyrazinamide, reference compound]	–	–	–	12.5 (≈ 102 µM)	–	–	–	–	–	–	–	–
